Results published in article PMC3579935, “High-Throughput Screening for Growth Inhibitors Using a Yeast Model of Familial Paraganglioma” (PLoS ONE, 2013).
Where two headings read alike, the source gives them in different places.

Target: T1, yeast alcohol dehydrogenase (Saccharomyces cerevisiae, UniProt P00330)
T1 construct: gene ADH1
T1 sequence (P00330 2-348): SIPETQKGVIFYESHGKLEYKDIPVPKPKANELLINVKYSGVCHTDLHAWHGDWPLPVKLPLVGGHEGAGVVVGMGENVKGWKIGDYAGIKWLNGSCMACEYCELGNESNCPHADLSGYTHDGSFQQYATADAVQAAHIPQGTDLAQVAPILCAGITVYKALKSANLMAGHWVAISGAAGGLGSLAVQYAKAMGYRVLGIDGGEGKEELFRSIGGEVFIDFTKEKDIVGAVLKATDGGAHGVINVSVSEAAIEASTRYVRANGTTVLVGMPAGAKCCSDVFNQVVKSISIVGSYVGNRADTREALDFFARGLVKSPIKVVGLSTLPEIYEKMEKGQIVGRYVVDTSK
Experiment: NADH absorbance ([…] nm) enzyme assay of acetaldehyde reduction, 8-point dose response
Format: biochemical

| IC50 (read-out: IC50 yADH ^c) [µM] | SMILES | IC50 [µM] |
| --- | --- | --- |
| 25.6 | CC(=O)c1ccc(O)c2c1C1C=CCC1C(c1ccc(Cl)cc1)N2 (stereo not shown) [compound 7172827, 7172827] |  |
|  | COc1ccc(/C=C/[N+](=O)[O-])cc1Br [compound 7241889, 7241889] | 1.3 |
|  | COc1cc(C)c(/C=C/[N+](=O)[O-])cc1C(C)C [compound 7279172, 7279172] | 12.7 |
|  | C#CCOc1c(Cl)cc(/C=C/[N+](=O)[O-])cc1OC [compound 7312219, 7312219] | 3.8 |
